Non-standard residues stand in square brackets, D forms with d. Residues, ends and D or L forms follow the SMILES beside them. *: point of attachment. Palmitoyl = CCCCCCCCCCCCCCCC(=O)*
Experiments:
Format in all cases: cell-based
[1] = Cytotoxicity, XTT viability, non-cancer cells; settings: mouse, non-cancer cell line, 24 h incubation, read-out: LC50, 3T3
Experimental: Prostate cancer cell lines (CL1 and 22RV1; ATCC, USA) were grown in RPMI-1640 supplemented with 10% FCS (Biological Industries, Beit Haemek, Israel). N1H-3T3 mouse fibroblast cell line (ATCC, USA) was grown in DMEM supplemented with 10% bovine serum. To test cytotoxicity against the cancer cells, aliquots of medium containing 1×10^4 cells were distributed into a 96-well plate (Falcon). After one day, the media were replaced with 90 μl of fresh media and 10 μl of a solution containing different concentrations of the peptides. The plate was then incubated for 24 h before adding to each well 50 μl of XTT reaction solution (Biological Industries, Beit Haemek, Israel); viability was determined as previously described (Papo et al., (2003) J. Biol. Chem. 278:21018-23). The LC50 (concentration at which 50% of the cells die) for each peptide was obtained from the dose-dependent cell viability curves.

[2] = system: Aspergillus fumigatus ATCC 26430; assay: microbe, parasite or virus in culture; settings: ATCC 26430, pH 7.4
[3] = system: Pseudomonas aeruginosa ATCC 27853; settings: ATCC 27853, pH 7.4
Summary of the method: (§1)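 LB, pH 7.4 default (5.5 optional, adjusted with HCl/NaOH); inoculum suspension 1×10^6 CFU/ml, added 1:1 to 2-fold lipopeptide dilutions in water; 37° C, 18-20 h; OD600; MIC = 100% inhibition.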

[4] = system: E. coli ATCC 35218; settings: ATCC 35218, pH 7.4
Summary of the method: as §1

[5] = system: E. aerogenes ATCC 35029; settings: ATCC 35029, pH 7.4
Summary of the method: as §1

[6] = system: Staphylococcus aureus ATCC 6538P; settings: ATCC 6538, pH 7.4
Summary of the method: as §1

[7] = system: Cryptococcus neoformans ATCC MYA-422; assay: microbe, parasite or virus in culture; settings: ATCC MYA-422, pH 7.4
[8] = system: Candida albicans ATCC 10231; assay: microbe, parasite or virus in culture; settings: ATCC 10231, pH 7.4
Summary of the method: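 Broth microdilution in RPMI 1640/0.165 M MOPS, 1×10^4 CFU/ml inoculum, 2-fold serial lipopeptide dilutions in water, pH 7.4 unless stated (pH 5.5 alternative). Incubated 24–48 h at 35 °C with agitation; growth read at A620. MIC = lowest concentration giving 100% growth inhibition.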

| Structure (SMILES) | CC50 at 24 h [1] | Minimal Inhibitory Concentration, A. fumigatus ATCC 26430 [2] | Minimal Inhibitory Concentration, P. aeruginosa ATCC 27853 [3] | Minimal Inhibitory Concentration, E. coli ATCC 35218 [4] | Minimal Inhibitory Concentration, E. aerogenes ATCC 35029 [5] | Minimal Inhibitory Concentration, S. aureus ATCC 6538P [6] | Minimal Inhibitory Concentration, C. neoformans ATCC MYA-422 [7] | Minimal Inhibitory Concentration, C. albicans ATCC 10231 [8] |
| --- | --- | --- | --- | --- | --- | --- | --- | --- |
| CC(C)C[C@@H](N)C(=O)N[C@@H](CCCCN)C(=O)N[C@@H](CCCCN)C(=O)N[C@H](CC(C)C)C(=O)N[C@H](CC(C)C)C(=O)N[C@@H](CCCCN)C(=O)N[C@@H](CCCCN)C(=O)N[C@H](CC(C)C)C(=O)N[C@H](CC(C)C)C(=O)N[C@@H](CCCCN)C(=O)N[C@@H](CCCCN)C(=O)N[C@H](CC(C)C)C(N)=O [[D]-L6K6, LKKLLKKLLKKL, reference compound] (H-[dL]KK[dL][dL]KK[dL][dL]KK[dL]-NH2; N-terminus assumed) | > 100 µM | >50 µM | >50 µM | 50 µM | >50 µM | >50 µM | >50 µM | >50 µM |
| CCCCCCCCCCCCCCCC(=O)N[C@H](CC(C)C)C(=O)N[C@@H](CCCCN)C(=O)N[C@@H](CCCCN)C(=O)N[C@H](CC(C)C)C(=O)N[C@H](CC(C)C)C(=O)N[C@@H](CCCCN)C(=O)N[C@@H](CCCCN)C(=O)N[C@H](CC(C)C)C(=O)N[C@H](CC(C)C)C(=O)N[C@@H](CCCCN)C(=O)N[C@@H](CCCCN)C(=O)N[C@H](CC(C)C)C(N)=O [lipopeptide 24, (CH3-(CH2)14-CO-)-D-Leu-Lys-Lys-D-Leu-D-Leu-Lys-Lys-D-Leu-D-Leu-Lys-Lys-D-Leu-NH2] (Palmitoyl-[dL]KK[dL][dL]KK[dL][dL]KK[dL]-NH2) | 50 µM | 1.56 µM | >50 µM | 50 µM | >50 µM | 50 µM | 0.78 µM | 1.56 µM |
